One data set can be described thus: in vivo. More on the design: species or system guinea pigs. To be noted: guinea pig; for half-life: t1/2 (hr). The text has this:
(§1) Male guinea pigs weighing 800-1000 grams (Harlan-Sprague-Dawley, San Diego, Calif.) were used for efficacy studies. Male guinea pigs (Harlan-Sprague-Dawley) weighing 400-600 grams were used for pharmacokinetic studies. The animals were housed, 1 per cage, in a temperature-controlled environment with alternating 12-hour periods of light and darkness and given unrestricted access to food and water. Prior to each study, animals were habituated to the environment for at least 7 days. Female CDI mice (Sprague-Dawley) weighing 22-28 grams were used for determination of maximum tolerated dose (MTD). All animals were maintained in accordance with guidelines of the Committee on Care and Use of Laboratory Animals of the Institute of Laboratory Animal Resources, National Research Council.
The in vivo pharmacokinetics of the MVL formulations of bupivacaine and free bupivacaine hydrochloride were compared following a single 1 mL intracutaneous dose of the MVL formulation containing 1.0 percent (w/v) of bupivacaine, or a dose of 0.5 percent (w/v) of unencapsulated bupivacaine hydrochloride to a group of guinea pigs. […] For the animals that received free bupivacaine hydrochloride, samples were collected at 0 and 30 minutes, and 1, 3, 6 and 9 hours following injection, while the animals that received the MVL formulations of bupivacaine were sampled 0, 6, 12, 18, 24, 48, and 72 hours following injection. At each time point, 3 or more animals were first anesthetized with halothane and then exanguinated by cardiac puncture. Serum samples were obtained by centrifugation of clotted whole blood. Skin was collected around the injection site with 3 cm margins, together with a 2-3 mm layer of underlying subcutaneous tissue. The skin and serum samples were kept frozen at −20° C. until analysis.
The amount of total bupivacaine remaining in the injection site was obtained by mincing the tissue followed by in toto homogenization in water using a Polytron homogenizer (Brinkman, Littau, Switzerland). Bupivacaine was extracted from the homogenate and analyzed by HPLC using a previously published method (Le Guevello et al., J. Chromatography 622:284-290, 1993). Bupivacaine concentration in serum was determined by extraction followed by HPLC (Le Guevello et al., supra). Tetracaine spiked into each sample before extraction was used as an internal standard. The limit of detection of the assay was 20 ng/mL.
Pharmacokinetic data obtained from the samples were analyzed using a noncompartmental model (WinNonlin software, Scientific Consulting, Inc., Apex, N.C.). Parameters calculated were the drug amount remaining at the injection site, the area under the “amount vs. time” curve (AUC), and drug half-life (t1/2,). In addition to the AUC and half-life, peak concentration (Cmax) was also reported for serum bupivacaine pharmacokinetics.
One way analysis of variance (ANOVA) was used to separately determine dose dependency for the different drug formulations and route of administration (via MVL or free drug) as well as for comparison between formulations. Student-Newman-Keuls tests were used on all ANOVA analyses.

The test system of another data set is mice. Kind of data set: Determination of maximum tolerated dose (MTD), subcutaneous test. To be noted: highest dose at which none of the animals experienced systemic toxicity. In kind it is in vivo.
From the text: as §1
Determination of maximum tolerated dose (MTD) was done in mice using a subcutaneous test known in the art (R. H. de long et al., Anesthesiology 54:177-81, 1981). Groups of three mice each were given injections of either 780 or 980 mg per kg body weight of the above-described MVL formulation containing bupivacaine sulfate as two divided doses of 500 μl each (total 1.0 mL volume). The doses were administered in rapid sequence into each flank. Control groups of 3 mice each received one of the test doses as a single dose of 10, 20, 30 or 50 mg/kg body weight of unencapsulated bupivacaine hydrochloride. […]

Counter-ions that a name gives are not always drawn.

What is called AUC is the area under the concentration-time curve, a measure of exposure. Lower therefore signals low exposure. As usually defined, the Cmax is the maximum level reached in the sampled fluid or tissue. What is called half-life is the time in which the quantity being followed falls by half. With `CCCCN1CCCCC1C(=O)Nc1c(C)cccc1C` (centres unmarked) [Bupivacaine hydrochloride], in “in vivo”, the “AUC (mg * hr), Skin” value came to 2.9 mg·h and the “tolerability of the intracutaneous dose” value is given as “unable to tolerate”. For the same compound, in the data set “in vivo” (male), the AUC was found to be 21.2 µg·h/mL; the concentration peaked (Cmax) at 6.5 µg/mL; the “Peak Amount (mg), Skin” value worked out at 3.8 mg. The same compound showed a half-life in the data set “in vivo” (male, Serum) of 2.1 h. This compound also gave a half-life in the data set “in vivo” (male, Skin) of 1.3 h. Besides, in the data set on mice, the “maximum tolerated dose (MTD)” value was “about 20 mg/kg of body weight”.

(Values after patent US8834921B2, “Sustained-release liposomal anesthetic compositions” (Pacira Pharmaceuticals, Inc., priority 1997, dated 2014).)
